# Experimental data as given in US9956232B2, “Dialkyl-phosphinoyl-alkane (Dapa) compounds and compositions for treatment of lower gastrointestinal tract disorders” (priority 2016, dated 2018).
# Several values for one entry are separate records, joined by “and”; a condition that tells them apart may be missing. Equal values may be shown once. Read-outs that look alike come from different tables or passages of the source.
# Key:
# [1] = tested on: pentobarbital-anesthetized male rats; assay: Shaking frequency (wet-dog shaking) of anesthetized rats after intravenous, perioral or topical delivery; format: in vivo; settings: anesthetized rat
# Description: In experiments conducted here, test compounds were evaluated for “wet-dog shaking” as a model of cooling sensation. Using a standardized procedure, test compounds were compared in their ability to stimulate the shaking response by intravenous injection into a cannulated femoral vein, by perioral administration, and by topical delivery to the abdominal skin.
# Each rat was given two injections with a 30 min interval. […] Shaking frequency was counted for 15 min after injection. Shaking was observed immediately after i.v. injection and at least 78% of the total shakes occurred in the first 5 min after injection. The response in the second trial was at least as robust in the first trial, showing the lack of desensitization.
# Test compounds were dissolved in saline and administered by oral gavage to pentobarbital-anesthetized male albino rats at 20 mg/kg at a volume of 0.1 mL/100 g body weight [N=3 to 4 rats per compound]. Shaking was counted over a 40 min period and recorded at 10-min intervals.
# For topical application of DAPA, the abdominal skin of the anesthetized rat was shaved and 20 μL of the pure DAPA was applied with a micropipette onto a ˜1 cm diameter circle of skin, enclosed with a ring of cream [Baby cream “Nevskaya kosmetika Detskyi” Nevskaya Kosmetika Inc., Saint-Petersburg 192029], as shown in FIG. 5D. The number of shakes was counted for 1 hr after application.
# [2] = target: TRPM8 (Homo sapiens, UniProt Q7Z2W7); assay: TRPM8 receptor agonist assay (Fluo-8 calcium, FLIPR); format: cell-based; set-up: host or cells: CHO cells, stably transfected
# Chain of TRPM8 (Q7Z2W7 whole entry): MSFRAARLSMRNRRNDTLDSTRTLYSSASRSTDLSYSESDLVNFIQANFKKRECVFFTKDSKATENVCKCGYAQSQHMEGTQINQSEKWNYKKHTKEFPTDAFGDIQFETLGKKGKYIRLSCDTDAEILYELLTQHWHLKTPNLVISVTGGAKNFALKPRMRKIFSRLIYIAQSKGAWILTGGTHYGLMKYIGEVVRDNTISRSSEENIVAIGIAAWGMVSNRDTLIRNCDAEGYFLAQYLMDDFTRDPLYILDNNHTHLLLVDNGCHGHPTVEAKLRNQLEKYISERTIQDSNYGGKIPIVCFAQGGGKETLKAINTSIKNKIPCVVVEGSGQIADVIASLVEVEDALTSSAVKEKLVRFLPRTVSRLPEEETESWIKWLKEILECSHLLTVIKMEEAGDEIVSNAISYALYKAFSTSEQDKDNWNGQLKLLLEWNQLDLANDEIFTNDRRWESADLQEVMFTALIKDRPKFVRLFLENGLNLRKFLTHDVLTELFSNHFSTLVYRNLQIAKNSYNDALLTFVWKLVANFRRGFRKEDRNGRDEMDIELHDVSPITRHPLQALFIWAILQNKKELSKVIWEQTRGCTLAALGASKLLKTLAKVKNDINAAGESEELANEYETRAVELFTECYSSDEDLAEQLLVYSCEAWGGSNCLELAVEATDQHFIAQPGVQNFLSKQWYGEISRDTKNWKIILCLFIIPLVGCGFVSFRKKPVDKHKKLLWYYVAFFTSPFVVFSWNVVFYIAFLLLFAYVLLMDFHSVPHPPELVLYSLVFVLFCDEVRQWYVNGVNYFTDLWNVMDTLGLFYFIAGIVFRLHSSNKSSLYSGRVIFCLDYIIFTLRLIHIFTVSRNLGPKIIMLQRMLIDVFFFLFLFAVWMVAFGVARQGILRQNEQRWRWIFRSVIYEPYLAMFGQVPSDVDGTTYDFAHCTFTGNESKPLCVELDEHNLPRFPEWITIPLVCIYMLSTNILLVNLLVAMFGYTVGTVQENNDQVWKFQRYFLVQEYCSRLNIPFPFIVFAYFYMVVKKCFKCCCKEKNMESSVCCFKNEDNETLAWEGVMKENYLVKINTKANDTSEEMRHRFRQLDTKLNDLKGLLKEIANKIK
# Description: Compounds were tested on (CHO) cells stably transfected with human TRPM8 cDNAs using a Fluo-8 calcium kit and a Fluorescence Imaging Plate Reader ([…]™) instrument. […] Solutions were prepared by diluting stock solutions in a HEPES-buffered physiological saline (HBPS) solution. Test compound and control formulations were loaded in polypropylene or glass-lined 384-well plates, and placed into the FLIPR instrument (Molecular Devices Corporation, Union City, Calif., USA). Each was tested at 8 concentrations with n=4 replicates per determination. […] For […]™ assay, cells were plated in 384-well black wall, flat clear-bottom microtiter plates (Type: BD Biocoat Poly-D-Lysine Multiwell Cell Culture Plate) at approximately 30,000 cells per well. Cells were incubated at 37° C. overnight to reach a near confluent monolayer appropriate for use in a fluorescence assay. The test procedure was to remove the growth media and to add 40 μL of HBPS containing Fluo-8 for 30 minutes at 37° C. 10 μL of test compound, vehicle, or control solutions in HBPS were added to each well and read for 4 minutes. Concentration-response data were analysed via the FLIPR Control software that is supplied with the FLIPR System (MDS-AT) and fitted to a Hill equation.
# [3] = tested on: heat-induced edema in the anesthetized rat paw; assay: Heat-induced edema in the anesthetized rat paw; format: in vivo; settings: 20 mg/mL, 0.3 mL per paw, 30 min before 58° C. water 1 min; relative to contralateral paw
# From the text: Inflammation is defined as the reaction of vascularized living tissue to local injury [Cotran, R S. 1989. Inflammation and repair. In Robbins: Pathologic Basis of Disease, ed. S. L. Robbins, R. S. Cotran, V. Kumar, 2:39-86. Philadelphia: Saunders. 4th ed.]. The characteristic signs of inflammation are redness, swelling, heat, and pain (and loss of function). The anti-inflammatory properties of the DAPA compounds were studied in a model of heat-induced vascular leakage [Wei et al. Method of inhibiting inflammatory response. U.S. Pat. No. 4,801,612; Wei et al., Anti-inflammatory peptide agonists. Annual Review Pharmacol Toxicol. 33:9-108, 1993]. When the paws of pentobarbital-anesthetized rats (200 to 300 g body weight) are immersed in 58° C. water for 1 min, the normal paw volume of about 1.8 mL was increased by ˜88% within 30 min, the swelling being due to an increase in water content of the paw.
# Test compounds were dissolved in 20% water-80% R-1,2-propanediol at 20 mg/mL. The solutions were applied to the paw skin of pentobarbital-anesthetized rats (200 to 300 g body weight) at 0.3 mL per paw, using a syringe attached to a blunt 21 gauge needle covered at its tip with a piece of polyethylene 60 tubing. After distributing the solution over the paw, the paw was tightly enclosed in a plastic finger cut from a disposable glove. The contralateral paw [control] received only the vehicle. Thirty min after application, both paws were immersed in 58° C. water for 1 min. Thirty min after immersion, both paws were cut at ankle joint with scissors and weighed.
# This degree of inhibition is significant for tissue protection as the injury stimulus is of supra-maximal intensity. The DAPA-2-5 effect was apparent to the untrained observer.
# [4] = tested on: human circular smooth muscle; assay: Spontaneous contractions of human colon circular smooth muscle strips in organ bath; settings: for IC50: read-out: median inhibitory concentration (IC50)
# Description: In this present study, Dapa was examined by Amato in her test system. […] As shown in the FIG. 3, DAPA-2-5, prepared as a solution dissolved in distilled water, produced a dose-dependent reduction of the amplitude of human colon smooth muscle contractions when it was added to the organic bath.
# The experimental procedures were approved by the Ethics Committee, University of Palermo, Italy. Human distal colon samples were obtained after informed consent from patients without LGIT disorders. The specimens were immediately placed in preoxygenated Krebs solution and stored overnight at 4° C. Circular muscular strips (4 mm wide by 10 mm long) were cut and suspended in a four-channel organ bath and connected to an isometric force transducer (FORT 25, Ugo Basile, Biological Research Apparatus, Comerio, Va., Italy). The organ bath contained 8 mL of oxygenated Krebs solution at 37° C. Mechanical activity was analyzed using the PowerLab/400 system (Ugo Basile). A tension of 1 g was applied, and strips allowed to equilibrate until spontaneous phasic contractions were recorded. Dapa compounds were added at step concentrations of 1 to 300 μM to the organ bath, with washing in between, and the contractions recorded after 4 min when the drug effect stabilizes. The TRPM8 antagonist, 5-BT (10^−5 M), was added at least 15 min before Dapa.
smiles,measurement,setting,value
"CCCCCP(=O)(C(C)CC)C(C)CC (stereo not drawn) [DAPA-2-5, 1-Di(sec-butyl) phosphinoyl-pentane]","Shaking frequency, Intravenous","[1]; 2 mg/kg i.v., 2nd trial, counted for 15 min",20 ± 2 shakes
same,"Shaking frequency, Perioral","[1]; 20 mg/kg by oral gavage, counted for 40 min",4 shakes and 4 ± 1 shakes
same,"Shaking frequency, Topical","[1]; 20 μL pure compound on shaved abdominal skin, counted for 1 hr",0 shakes
same,×Menthol,[2]; TRPM8 relative potency as repeated in Table 4,2.2
same,Relative Potency,[2]; relative to menthol = 1.0 (Table 2),2.2
same,Inhibition of Heat Edema (±S.E.M.),[3],12.9% and 12.9 ± 2.5 %
same,IC50,"[4]; amplitude of spontaneous contractions, human distal colon circular muscle",34 µM
same,effect of TRPM8 antagonist on the inhibition of contractions,[4]; pretreatment with 5-BT (10^−5 M),inhibited by pretreatment with 5-BT
same,IC50,"[4]; spontaneous contractions, human circular smooth muscle in vitro",8 µg/mL
